According to patent US10464930B2, “Compositions and methods for treating estrogen-related medical disorders” (THE BOARD OF TRUSTEES OF THE UNIVERSITY OF ILLINOIS, priority 2012, dated 2019):
Where two headings read alike, the source gives them in different places.

How the values were obtained:
[1] = tested on: primary cortical neurons exposed to OGD; assay: Oxygen glucose deprivation (OGD) neuroprotection, MTT; type: cell-based, rat; conditions: for neuroprotection (cell survival by MTT): 2 h OGD, survival at 24 h, SERMs 100 nM, normalized to E2 10 nM; for neuroprotective activity with GPR30 antagonist: plus G15 (100 nM); for neuroprotective activity with GPR blocker: plus pertussis toxin (100 ng/mL)
[2] = tested on: LTP in the CA1 region of hippocampal sections; assay: LTP after theta burst stimulation in hippocampal slices; parameters: species or system mouse; conditions: for end average potentiation of fEPSP (LTP): 30 min prior to TBS, slices of 16-month male 3×Tg mice
Protocol: LTP was measured after TBS in the CA1 region of hippocampal sections from 16 month male 3×Tg mice or WT controls. Test compounds (SERMs 100 nM; G15 100 nM) were added 30 min prior to TBS. […] (C) Secondary analysis of theta bursts indicate action both during induction and stabilization of LTP, through a GPR30 dependent mechanism.
LTP was measured after TBS in the CA1 region of hippocampal sections from 8 month old male C57Bl/6 mice. G15 (100 nM) was added 30 min prior to TBS and continued throughout. G15 had no effect on LTP, which reached levels equal to WT background in FIG. 2 for both controls and G15.
LTP was measured in the CA1 region of hippocampal sections from 16 month male 3×Tg mice using the method detailed in manuscript, with the exception of a variable interburst interval during TBS. ODQ (10 nM) was added 30 min prior to TBS and continued throughout.
Electrophysiology. All experiments used 16-month old male 3×Tg transgenic or age-matched WT background controls. For electrophysiology, mice were rapidly decapitated, and brains were removed into an ice-cold aCSF solution (in mM: NaCl 124, KCl 3.0, KH2PO4 1.25, NaHCO3 25.7, D-glucose 10, L-ascorbate 2.0, MgSO4 2.5, and CaCl2 3.3) and sectioned on a tissue chopper into 400 um sections. Slices were transported to a 37° C. solution of aCSF, continuously bubbled with 95% O2/5% CO2, and allowed to recover at least 60 min before experimentation. After placement of a stimulation electrode in the Schaffer commissural fibers and recording electrodes with 2 M NaCl solution into the stratum radiatum of the CA1 area, stimulus intensity was set to evoke submaximal fEPSP and continuously monitored at 20 s intervals for at least 15 min to establish a stable baseline. SERMs (100 nM) and G15 (100 nM) were prepared fresh in perfusate and started at least 30 min before LTP induction to reach a new baseline after enhancement of basal synaptic transmission was observed(97). LTP was induced using a theta burst induction protocol by applying 10 bursts of four pulses at 100 Hz with an interburst interval of 200 msec. Resulting fEPSP was monitored at 20 s intervals for […] post TBS.
Long-term potentiation (LTP) in the CA1 field of the hippocampus is a well-studied cellular model for learning and memory. […] At 16 months, an advanced age at which Alzheimer's-like neuropathology is well developed in these animals, studies on LTP have not previously been reported. We observed a robust, reproducible deficit in LTP in these aged transgenic mice, with field excitatory post-synaptic potentials (fEPSP) showing an end average potentiation of 97.0±6.4% of baseline at 45 min post-TBS, compared to 134.7±10.3% observed in the wild type (WT) controls (FIG. 2A,B).
To determine if drugs enhanced LTP by altering physiological responses during LTP induction, such as NMDA receptor-mediated currents or downstream events involved in expression or stabilization, the postsynaptic responses to theta bursts were quantified as previously described (56, 57).

[3] = CNS bioavailability by LC-MS/MS; type: in vivo, mouse; conditions: 5 mg/kg i.p., up to 2 h after administration
Protocol: (§1) CNS Bioavailability & NOX Measurement. All experiments were performed on either male C57B1/6 mice (Charles River Laboratory) or eNOS(−/−) animals. Animals were injected (i.p.) at various time points before sacrifice at the doses specified. After euthanasia via CO2, plasma was collected, and cortices and hippocampi were collected after PBS perfusion and stored at −80° C. Tissue samples were weighed and extracted with methanol. Plasma samples were extracted with cold acetonitrile. Quantitative analysis of drug concentrations in plasma and brain used internal standards spiked into plasma and brain homogenates before liquid extraction with acetonitrile or methanol, and separation and measurement was performed with LC-MS/MS tandem mass spectrometry. The supernatant (deproteinized) was analyzed by chemiluminescence with SIEVERS 280i nitric oxide analyzer.
(§2) Brain and plasma NO levels were assessed by measuring metabolic oxidation products, NO2^− and NO3^− (NOx), using chemiluminescence detection. […] To assess the relative contribution of eNOS, DMA and NO-DMA were administered to eNOS(−/−) animals.

[4] = tested on: NO levels (NOx) in plasma and hippocampus; assay: NOx measurement in plasma and CNS by chemiluminescence; type: in vivo, mouse; conditions: 2 mg/kg; for NOx in plasma or hippocampus, eNOS(−/−): eNOS(−/−) animals; for NOx in hippocampus and plasma, WT: one hour after injection, WT mice
Protocol: Levels of NO were assessed by measuring breakdown products 1 h after i.p. injection of SERMs (2 mg/kg) using chemiluminescence detection.
as §1, §2

[5] = tested on: scopolamine- or L-NAME-induced memory deficit; assay: Step through passive avoidance (STPA); type: in vivo, mouse; conditions: for reversal of scopolamine-induced memory deficit (STPA latency): 2 mg/kg i.p. 20 min prior to training, scopolamine 1 mg/kg, C57Bl/6, 24 h; for reversal of L-NAME-induced cognitive deficit (STPA) / reversal of scopolamine-induced deficit in eNOS KO mice (STPA): 2 mg/kg; for reversal of L-NAME-induced cognitive deficit (STPA): L-NAME 50 mg/kg 30 min prior to training
[6] = tested on: clotting cascades (PT, aPTT); assay: Anticoagulation: PT and aPTT after i.p. dosing; type: in vivo, mouse; conditions: for anticoagulation with impaired NOS function: 2 mg/kg 1 h prior, L-NAME 50 mg/kg 30 m prior to collection; for PT / aPTT / anticoagulant effect at 3 h: 2 mg/kg i.p.; for PT / aPTT: 1 h
Protocol: Blood was collected by cardiac puncture and PTT and aPTT were determined 1 or 3 h after i.p. drug administration (2 mg/kg).
Anticoagulation. SERMs were injected (i.p.) 1 h before blood collection, and L-NAME was injected (i.p.) 30 min before blood collection. The mouse was sedated by exposing it to CO2 until unconscious and blood was collected in 4.5 mL BD Vacutainer Glass Evacuated Blood Collection Tubes (with 0.105 M buffered sodium citrate) by cardiac puncture. The blood samples were centrifuged at 300 g for 30 min to separate the plasma from the blood, and then 200 uL of plasma was taken from each sample and the PT and aPTT were measured using an ACL 7000 Coagulation Analyzer. The analyzer injects […] of PT-fibrinogen (lyophilized rabbit brain calcium thromboplastin with stabilizers, polybrene, buffer and preservatives) to 75 μL of plasma sample to measure the PT, and 75 μL of synthAFAX (0.025 M)+100 μL of CaCl2 (0.02 M) were added to 75 μL of plasma to measure aPTT. The analysis was at 37° C. using a photo sensor at λ=671 nm.

isolated aortic rings = assay: Aortic ring relaxation
ERα = target: T1, ERα (Homo sapiens, UniProt P03372); assay: ER ligand binding by competitive E2 displacement (ERα)
T1 sequence (P03372 1-595): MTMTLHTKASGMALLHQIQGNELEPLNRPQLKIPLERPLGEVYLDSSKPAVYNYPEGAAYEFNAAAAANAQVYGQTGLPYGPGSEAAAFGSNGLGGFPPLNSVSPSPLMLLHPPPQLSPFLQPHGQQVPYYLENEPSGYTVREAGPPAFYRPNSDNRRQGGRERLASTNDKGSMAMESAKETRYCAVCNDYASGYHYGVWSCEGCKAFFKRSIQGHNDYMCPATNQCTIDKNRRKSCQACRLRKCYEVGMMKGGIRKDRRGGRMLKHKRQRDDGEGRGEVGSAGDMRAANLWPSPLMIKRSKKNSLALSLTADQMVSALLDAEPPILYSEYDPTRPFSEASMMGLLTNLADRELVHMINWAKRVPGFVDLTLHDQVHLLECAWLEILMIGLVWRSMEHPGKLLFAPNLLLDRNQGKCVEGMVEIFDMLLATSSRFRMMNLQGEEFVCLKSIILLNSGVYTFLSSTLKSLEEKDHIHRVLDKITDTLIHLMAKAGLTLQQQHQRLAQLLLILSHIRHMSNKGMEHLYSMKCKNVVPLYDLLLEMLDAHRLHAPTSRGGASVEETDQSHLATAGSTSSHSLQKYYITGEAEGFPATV

ERβ = ERβ (Homo sapiens, UniProt Q92731); assay: ER ligand binding by competitive E2 displacement (ERβ)
Chain of ERβ (Q92731 whole entry, species assumed): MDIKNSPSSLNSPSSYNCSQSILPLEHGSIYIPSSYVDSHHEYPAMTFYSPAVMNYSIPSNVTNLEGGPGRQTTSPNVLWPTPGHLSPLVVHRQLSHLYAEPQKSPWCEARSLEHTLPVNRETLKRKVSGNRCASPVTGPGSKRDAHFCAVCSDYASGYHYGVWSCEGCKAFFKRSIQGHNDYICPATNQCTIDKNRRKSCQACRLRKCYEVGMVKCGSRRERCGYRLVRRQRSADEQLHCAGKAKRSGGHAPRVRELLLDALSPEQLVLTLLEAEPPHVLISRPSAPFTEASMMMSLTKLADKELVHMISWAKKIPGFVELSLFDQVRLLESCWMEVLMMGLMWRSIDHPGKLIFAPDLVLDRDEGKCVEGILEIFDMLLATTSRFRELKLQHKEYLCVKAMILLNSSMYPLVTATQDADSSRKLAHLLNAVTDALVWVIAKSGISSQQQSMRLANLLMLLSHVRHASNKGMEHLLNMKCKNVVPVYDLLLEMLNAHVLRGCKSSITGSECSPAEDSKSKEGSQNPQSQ

[7] = Rattus norvegicus, read-out: EC50 for relaxation

Row | SMILES | neuroprotection (cell survival by MTT) [1] | neuroprotective activity with GPR30 antagonist [1] | neuroprotective activity with GPR blocker [1] | enhancement of subsequent theta bursts during LTP induction ([2]; 100 nM, 3×Tg slices) | end average potentiation of fEPSP (LTP) ([2]; 100 nM) | NOx in plasma or hippocampus, eNOS(−/−) [4] | NOx in hippocampus and plasma, WT [4] | reversal of scopolamine-induced memory deficit (STPA latency) [5] | reversal of L-NAME-induced cognitive deficit (STPA) [5] | reversal of scopolamine-induced deficit in eNOS KO mice (STPA) [5] | anticoagulation with impaired NOS function [6] | PT [6] | aPTT [6] | anticoagulant effect at 3 h [6] | EC50 (isolated aortic rings; [7]) [µM] | efficacy (relaxation) (isolated aortic rings; intact aortic rings) [%] | further results
1 | Oc1ccc(-c2sc3cc(O)ccc3c2Oc2ccc(OCCN3CCCCC3)cc2)cc1 [DMA, desmethylarzoxifene] | robust neuroprotection | blocked | blocked | augmented | 144.9±8.7 % of baseline | no effect | greater than twofold elevation | restored the cognitive deficit | not able to restore cognition | not able to restore cognition | did not persist in the presence of NOS blockade | increased PT | significantly increased | decreased to that of control samples | 3.5 ± 2.5 | ~100 | end fEPSP (LTP) with GPR30 blocker ([2]; DMA 100 nM plus G15 (100 nM), 3×Tg slices): 96.8±7.10%; effect on LTP with ODQ ([2]; plus ODQ (10 nM), 3×Tg slices, preliminary): ODQ blocks effect of DMA; brain regional retention [3]: preferential retention in the hippocampus over the cortex; efficacy after endothelium removal or NOS inhibition (isolated aortic rings; removal of the endothelium or L-NAME): significant decrease in the efficacy
2 | Oc1ccc2c(Oc3ccc(OCCN4CCCCC4)cc3)c(-c3ccc(F)cc3)sc2c1 [F-DMA] |  |  |  |  |  |  |  |  |  |  |  |  |  |  |  |  | IC50 (ERα; competitive E2 displacement): 0.017 ± 0.0006 µM; EC50 (isolated aortic rings; read-out: EC50 for relaxation, intact aortic rings, mean, S.D.): 2.4 ± 1.2 µM
3 | Brc1cc2c(cc1[C@@H]1Nc3ccccc3[C@@H]3C=CC[C@@H]31)OCO2 [Compound G15] |  |  |  |  |  |  |  |  |  |  |  |  |  |  |  |  | effect on LTP in WT slices ([2]; 100 nM, WT C57Bl/6 slices, absence of DMA): no effect
4 | O=[N+]([O-])OCCCC1CCN(CCOc2ccc(Oc3c(-c4ccc(O)cc4)sc4cc(O)ccc34)cc2)CC1 [NO-DMA, 3-(1-(2-(4-(6-hydroxy-2-(4-hydroxyphenyl)benzo[b]thiophen-3-yloxy)phenoxy)ethyl)piperidin-4-yl)propyl nitrate] | robust neuroprotection identical to DMA | blocked | blocked | augmented | 144.2±5.2 % of baseline | increase NOx significantly | greater than twofold elevation | equivalent restoration of protection to DMA | reversed only by NO-DMA | only NO-DMA showed efficacy | significant anticoagulation compared to control | increased PT, but only NO-DMA reached significance | significantly increased | remained significantly higher than control | 0.13 ± 0.09 |  | IC50 (ERα): 0.0214 ± 0.0067 µM; IC50 (ERβ): 0.0244 ± 0.0096 µM; neuroprotection with ERα blockade ([1]; plus ICI 182780 (100 nM), added 45 min prior to OGD): did not block this effect; attenuation of neuroprotective activity by NOS antagonist ([1]; plus L-NAME (100 μM)): ineffective; attenuation of neuroprotective activity by PI3K inhibitor ([1]; plus LY294002 (10 μM)): effective; EC50 (isolated aortic rings; Rattus norvegicus, read-out: EC50 for relaxation, L-NAME): 1 ± 0.54 µM; EC50 (isolated aortic rings; Rattus norvegicus, read-out: EC50 for relaxation, endothelium-denuded): 0.9 ± 0.69 µM; maximal relaxation response (isolated aortic rings; intact aortic rings): induced maximal relaxation; potency relative to DMA (isolated aortic rings; intact aortic rings): at least ten-fold increased potency
5 | O=C(c1ccc(OCCN2CCCCC2)cc1)c1c(-c2ccc(O)cc2)sc2cc(O)ccc12 [raloxifene, Raloxifene] |  |  |  |  |  |  |  | restored the cognitive deficit |  |  |  |  |  |  | 4 ± 2.9 | ~100 | 
6 | COc1ccc(-c2sc3cc(O)ccc3c2Oc2ccc(OCCN3CCCCC3)cc2)cc1 [arzoxifene] |  |  |  |  |  |  |  | restored the cognitive deficit |  |  |  |  |  |  | 3.3 ± 2.5 |  | 
